For eleven molecules, mortality, LD50 and LC50 results are on record in US4570005A, “Process for the preparation of 2-arylpropyl ether or thioether derivatives” (priority 1980, dated 1986).

The term LD50 denotes the dose expected to kill half of the subjects tested. A lower LD50 goes with greater toxicity.

Series [1] relates to resistant green rice leafhopper (collected at Nakagawara). The experiment in a line: Test 3: Effect on Resistant Green Rice Leafhopper (collected at Nakagawara). Format: in vivo, Nephotettix cincticeps Uhler (Green rice leafhopper). To be noted: Nephotettix cincticeps, read-out: Mortality (%), Green Rice Leafhopper Collected at Nakagawara. In a few lines: (§1)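 Ten adult females per pot, either resistant (Nakagawara) or sensitive (Chigasaki), were caged on air-dried rice seedlings (2–3 leaves) sprayed at 3 ml/pot with 100 or 20 ppm of an emulsifiable concentrate dilution. Dead and living insects were counted after 24 hours; mortality is the mean of three pots.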

Series [2] relates to sensitive green rice leafhopper (collected at Chigasaki). The experiment in a line: whole plant or invertebrate. To be noted: Nephotettix cincticeps, read-out: Mortality (%), Green Rice Leafhopper Collected at Chigasaki. It counts as in vivo. In a few lines: as §1
Series [3] has as its system two-spotted spider mite. The experiment in a line: Test 6: Effect on Two-Spotted Spider mite Adults. Format: in vivo. The settings on record: Tetranychus urticae. On the procedure: To a mixture of 20 parts of the compound of the present invention and 20 parts of Sorpol SM-200 (registered tradename for the product supplied by Toho Chemical Industrial Co., Ltd.) was added 60 parts of xylol, and the mixture was suffciently blended. The obtained emulsifiable concentrate was diluted at a predetermined concentration with distilled water, and the obtained dilution was used.
A kidney bean leaf disc perforated with a cork borer (15 mm in diameter) was placed on water-impregnated absorbent cotton (2 cm×2 cm), and 10 adults of two-spotted spider mite were set free. A chemical dilution having a concentration of 100 ppm was applied with an applicator in an amount of 3 ml.
The leaf disc-placed absorbent cotton was placed in a thermostat chamber maintained at 25° C. After 24 hours, the number of killed adults was counted and the mortality was calculated. The test was made on three leaf discs and the average value was calculated.

For series [4], the system named is German cockroach. The series can be described thus: Test 7: Effect on German Cockroach. It counts as in vivo. To be noted: Blattella germanica. In a few lines:
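Petri dish floors were treated with 50 or 10 mg/m2 of compound (diluted emulsifiable concentrate) and air-dried. Ten male adult German cockroaches per dish were held at 25° C. Agonized and dead insects were counted after 24 hours, averaging two dishes.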

Series [5] in a line: Test 9: Toxicity Test (acute oral toxicity, mice). The settings on record: mouse, in vivo, po. As to the method:
A predetermined amount of a solution or suspension of a test compound in corn oil was orally administered to male mice having a body weight of 19 to 23 g (0.2 ml per 10 g of the body weight). After 7 days, the number of killed mice was counted and the influences on the mice were examined.

Series [6] relates to tobacco cutworm. The series can be described thus: Test 1: Effect on Tobacco Cutworm (leaf immersion), mortality after 24 hours. Format: in vivo. To be noted: second-instar larvae, 25° C. In a few lines: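 Second-instar tobacco cutworm larvae were kept at 25 °C on air-dried sweet-potato leaves that had been immersed for 10 s in test dilutions of 100 or 20 ppm from an emulsifiable concentrate. Mortality was scored at 24 h as the mean of three cups.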

The test system of series [7] is diamond back moth. The experiment in a line: Test 4: Effect on Diamond Back Moth. It counts as in vivo. The settings on record: Plutella, third-instar larvae, 24 hours, read-out: Mortality (%). In a few lines:
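Compound formulated as an emulsifiable concentrate, diluted in water to 100 or 20 ppm and sprayed at 3 ml per cup onto cabbage leaves holding 10 third-instar larvae. Mortality counted after 24 hours; mean of three cups.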

The nature of series [8]: Test 8: Fish Toxicity. Format: in vivo. To be noted: carp, water; concentration at which 1/2 of the test fishes were killed within 48 hours; read-out: Fish Toxicity, TLm48. As to the method: A water tank having a width of 60 cm, a length of 30 cm and a height of 40 cm was filled with water, and 10 yearling carps having a body length of about 5 cm were set free in the tank and adapted to the environment in the tank. A test compound was applied so that the concentration in water was 10, 1 or 0.1 ppm. After 48 hours, the numbers of killed and living carps were counted and the influences on the fishes were examined.

Series [9] has as its system tobacco cutworm. The series can be described thus: Test 2: Tobacco Cutworm Larva Dipping Test, mortality after 24 hours. It counts as in vivo. To be noted: 24 hours. In a few lines:
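Second- and fifth-instar larvae dipped 5 s in a water dilution of an emulsifiable concentrate at 100 or 20 ppm, blotted, then held on artificial diet at 25° C. Dead and living larvae counted after 24 hours; mortality averaged over three cups.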

Where [10] appears, read: 20 ppm, sensitive female adults, 24 hours.
Where [11] appears, read: 100 ppm, sensitive female adults, 24 hours.
The mark [12] stands for this setting: 100 ppm, adults, 24 hours, 25° C, read-out: Mortality (%).
The mark [13] stands for this setting: 10 mg/m^2, male adults, agonized and killed after 24 hours, read-out: Mortality (%).
Where [14] appears, read: 50 mg/m^2, male adults, agonized and killed after 24 hours, read-out: Mortality (%).
Setting [15] is: fifth-instar larvae, read-out: Motality (%), Fifth-Instar Larvae.
Where [16] appears, read: second-instar larvae, read-out: Motality (%), Second-Instar Larvae.

Molecules are shown by their SMILES. Where two headings read alike, the source gives them in different places.

Consider `CCOP(=S)(OCC)Oc1ccc(=O)n(-c2ccccc2)n1` [(d), O,O-diethyl-O-(3-oxo-2-phenyl-2H-pyridazin-6-yl)-phosphorothioate, reference compound], for which the mortality at 20 ppm was found to be 10% in series [1] (20 ppm, resistant female adults, 24 hours) and 40% in series [2] (24 h). For the same molecule, the mortality at 100 ppm was found to be 20% in [1] (100 ppm, resistant female adults, 24 hours); 90% in series [2] (24 h); 40% in [3] (24 h). The mortality at 10 mg/m2 in series [4] (24 h) was found to be 50%. In [4] (24 h), the mortality at 50 mg/m2 came out at 100%.

As for `CC(C)(COCc1cccc(Oc2cccc(Cl)c2)c1)c1ccc(OC(F)F)cc1` [Compound 25, 3-(3-Chlorophenoxy)benzyl 2-(4-difluoromethoxyphenyl)-2-methylpropyl ether], the mortality at 20 ppm in [1] (24 h) and in series [2] (setting [10]) was 100% in each case. The values for the mortality at 100 ppm in series [1] (24 h), in series [2] (setting [11]) and in series [3] (setting [12]) were 100%, 100% and 90%, respectively. This molecule displayed an LD50 at 168 h in series [5] greater than 500 mg/kg.

Take `Cc1ccc(C(C)(C)COCc2cccc(Oc3ccc(Br)cc3)c2)cc1` [Compound 33, 3-(4-Bromophenoxy)benzyl 2-(4-methylphenyl)-2-methylpropyl ether]: the mortality at 20 ppm in [6] was found to be 90%; in [1] (24 h), 100%; in [2] (setting [10]), 100%; in [7] it was 90%. The mortality at 100 ppm stood at 100% in [6]; 100% in [1] (24 h); 100% in series [2] (setting [11]); 100% in series [7]; 95% in series [3] (setting [12]). The LC50 at 48 h in series [8] was greater than 10 µg/mL. Moreover, in series [5], the LD50 at 168 h was greater than 500 mg/kg.

With `CC(C)(COCc1cccc(Cc2ccccc2)c1)c1ccc(Cl)cc1` [Compound 35, 3-Benzylbenzyl 2-(4-chlorophenyl)-2-methylpropyl ether], the mortality at 20 ppm in series [1] (24 h) is 70%; in series [2] (setting [10]), 50%. The values for the mortality at 100 ppm in [1] (24 h), in [2] (setting [11]) and in series [3] (setting [12]) were 100%, 100% and 85%, respectively. For the same molecule, in [8], the LC50 at 48 h is greater than 10 µg/mL. The same molecule had an LD50 at 168 h in series [5] greater than 500 mg/kg.

Regarding `CC(C)(COCc1cccc(Oc2ccc(F)cc2)c1)c1ccc(F)cc1` [Compound 45], the mortality at 20 ppm in series [6], in series [1] (24 h), in [2] (setting [10]) and in [7] was 100% each time. Also, the mortality at 100 ppm in [6], in [1] (24 h), in series [2] (setting [11]), in [7] and in series [3] (setting [12]) was 100% in each case. For the same molecule, the mortality at 10 mg/m2 in series [4] (setting [13]) is 100%. The mortality at 50 mg/m2 in series [4] (setting [14]) stood at 100%. Further, the LC50 at 48 h in series [8] was greater than 1 µg/mL. Besides, the LD50 at 168 h in series [5] is greater than 500 mg/kg.

As to `CCC(C)(COCc1cccc(Oc2ccc(Br)cc2)c1)c1ccc(Cl)cc1` (stereo not drawn) [Compound 46], the mortality at 20 ppm in series [6] was 100%; in series [9] (setting [15]), 60%; in series [9] (setting [16]) it was 80%; in series [1] (24 h), 80%; in series [2] (setting [10]), 65%; in series [7] it was 100%. Moreover, the mortality at 100 ppm in series [6] was found to be 100%; in series [9] (setting [15]), 80%; in series [9] (setting [16]), 90%; in series [1] (24 h), 100%; in series [2] (setting [11]), 100%; in series [7] it was 100%. Moreover, in [3] (setting [12]), the mortality at 100 ppm is 95%. For the same molecule, the LC50 at 48 h in series [8] is greater than 10 µg/mL. The molecule further gave an LD50 at 168 h in series [5] greater than 500 mg/kg.

In the case of `Cc1ccc(C(C)(C)COCc2cccc(Oc3ccccc3)c2)cc1` [Compound 47, 3-Phenoxybenzyl 2-(4-methylphenyl)-2-methylpropyl ether], the mortality at 20 ppm in series [6] worked out at 90%; in [1] (24 h), 100%; in series [2] (setting [10]) it was 100%. Also, the mortality at 100 ppm in [6], in series [1] (24 h), in series [2] (setting [11]) and in series [3] (setting [12]) was 100% in each case. In addition, the mortality at 10 mg/m2 in [4] (setting [13]) is 90%. Besides, the mortality at 50 mg/m2 in series [4] (setting [14]) is 100%. The LC50 at 48 h in [8] was greater than 10 µg/mL. The LD50 at 168 h in series [5] was greater than 500 mg/kg.

With `CC(C)(COCc1cccc(Oc2ccccc2)c1)c1cc(Cl)cc(Cl)c1` [Compound 56, 3-Phenoxybenzyl 2-(3,5-dichlorophenyl)-2-methylpropyl ether], the mortality at 20 ppm in series [1] (24 h) came out at 100%; in series [2] (setting [10]) it was 90%. Also, the values for the mortality at 100 ppm in series [1] (24 h), in series [2] (setting [11]) and in [3] (setting [12]) were 100%, 100% and 80%, respectively. The molecule further displayed an LD50 at 168 h in series [5] greater than 500 mg/kg.

As for `CCOCc1ccc(C(C)(C)COCc2cccc(Oc3ccccc3)c2)cc1` [Compound 82, 3-Phenoxybenzyl 2-(4-ethoxymethylphenyl)-2-methylpropyl ether], the figures for the mortality at 20 ppm in series [1] (24 h) and in [2] (setting [10]) were 100% and 80%, respectively. For the same molecule, the mortality at 100 ppm in series [1] (24 h) was determined as 100%; in series [2] (setting [11]) it was 100%; in series [3] (setting [12]) it was 90%. Further, the LD50 at 168 h in series [5] was greater than 500 mg/kg.

Take `CCOc1ccc(C(C)(C)COCc2cccc(Oc3ccccc3)c2)cc1C` [Compound 90, 3-Phenoxybenzyl 2-(4-ethoxy-3-methylphenyl)-2-methylpropyl ether]: the mortality at 20 ppm in [6] came to 100%; in [9] (setting [15]), 90%; in series [9] (setting [16]), 100%; in series [1] (24 h), 100%; in series [2] (setting [10]), 100%; in series [7], 100%. Further, the mortality at 100 ppm in series [6], in series [9] (setting [15]), in series [9] (setting [16]), in [1] (24 h), in [2] (setting [11]) and in series [7] was 100% each time. In series [3] (setting [12]), the mortality at 100 ppm stood at 100%. Further, in series [4] (setting [13]), the mortality at 10 mg/m2 was determined as 90%. Further, the mortality at 50 mg/m2 in [4] (setting [14]) amounted to 100%. Besides, in [5], the LD50 at 168 h was greater than 500 mg/kg.

In [6], `C#CCOc1ccc(C(C)(C)COCc2cccc(Oc3ccccc3)c2)cc1` [Compound 98, 3-Phenoxybenzyl 2-(4-propargyloxyphenyl)-2-methylpropyl ether] showed a mortality at 20 ppm of 100% and a mortality at 100 ppm of 100%. Further, the mortality at 100 ppm in [3] (setting [12]) is 100%. The same molecule gave an LD50 at 168 h in [5] greater than 500 mg/kg.
